Measurements as given in PMC8199613, “Discovery of Novel Small-Molecule Inhibitors of PD-1/PD-L1 Interaction via Structural Simplification Strategy” (Molecules, 2021).
In brackets after ≈: the same amount, converted by molar mass. Entries after “also recorded” stand apart in the source; their conditions may differ.

Experiments:
[1] = molecular target: T1, PD-1/PD-L1 interaction (Homo sapiens, UniProt Q9NZQ7); test: HTRF-based PD-1/PD-L1 binding assay
T1 construct: purchased Cisbio 64ICP01PEG

[2] = molecular target: hPD-L1 (Homo sapiens, UniProt Q9NZQ7); test: SPR binding affinity assay (Biacore T200)
Chain of hPD-L1 (Q9NZQ7 19-238 limits assumed): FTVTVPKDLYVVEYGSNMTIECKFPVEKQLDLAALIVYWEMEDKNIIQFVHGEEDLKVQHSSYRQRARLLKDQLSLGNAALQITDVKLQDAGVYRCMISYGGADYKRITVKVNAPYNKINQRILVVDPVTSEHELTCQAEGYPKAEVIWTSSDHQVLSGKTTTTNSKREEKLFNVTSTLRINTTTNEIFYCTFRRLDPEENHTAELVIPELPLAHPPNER
Description: To provide definitive evidence of direct binding to PD-L1 with small-molecule inhibitors, an SPR-based binding assay was performed using Biacore T200 instrument, which facilitates measurement of the kinetic parameters of ligand–protein complex formation. In this determination, hPD-L1/Fc was loaded on a Series S Sensor Chip Protein A. A9 and A15, with similar bioactivities in HTRF assay, were gradually subjected to this assay, and their kinetic parameters and the binding affinities were determined with the aid of Biacore evaluation software.
SPR analysis was carried out according to the method described by a previous article. The kinetic analysis for the interaction of small molecules with hPD-L1 was performed on a Biacore T200 (GE Healthcare Bio-sciences, Uppsala, Sweden) using Series S Sensor Chip Protein A (GE Healthcare Bio-sciences, Uppsala, Sweden, catalog # 29139131-AA). Briefly, Fc-hPD-L1 (Acro Biosystems, Cambridge, MA, USA, catalog #PD1-H5258) was diluted using 1 × PBS-P^+ buffer (phosphate buffer 1×, GE Healthcare Bio-sciences, catalog # 28-9950-84, enriched with 0.05% surfactant P20) containing 5% DMSO (Sigma-Aldrich, St. Louis, MO, America, catalog # D4540) and captured as the ligand (i.e., the target of small molecules) on protein A chip surface following Biacore T200 build-in protocol for kinetic/affinity analysis at a concentration of 10 μg/mL. The contact time and flow rates were set as 120 s and 10 μL/min for the ligand capture. Each experiment was performed using a pair of flow cells, one with ligand captured and the other kept as reference. A concentration gradient of analytes was freshly prepared in 1× PBS-P^+ buffer with 5% DMSO with at least five concentrations, and the concentration range was optimized according to different analytes. Analytes could flow through both ligand-captured flow cells and reference flow cells at the same rate (30 μL/min) and contact time (90 s). Solvent correction was included to avoid the impact of DMSO on surface plasmon effect during binding analysis. Extra washing of the flow system using 50% DMSO in 1×PBS-P^+ buffer was allowed to control carry over effects. For the regeneration of surface after each cycle (one-time ligand capture and binding of analyte at a single concentration) was carried out using 10 mM glycine pH 1.5 (GE Healthcare Bio-sciences, Uppsala, Sweden, catalog #BR-1003-54) at a flow rate of 30 μL/min for 30 s. Kinetic analysis was performed at 25 °C. Maximum binding response (Rmax) and equilibrium dissociation […] (KD) values were calculated using Biacore T200 Evaluation software following the 1:1 binding model.

[3] = tested on: MDA-MB-231 cells; test: MTT non-specific cytotoxicity assay, MDA-MB-231; format: cell-based
Description: (§1) Considering that the toxicity of the compound might strongly interfere with the assay if the tested compounds could block PD-1/PD-L1 interaction to activate T cells for killing tumors, we examined their cell toxicities of MDA-MB-231 and Jurkat T cells in MTT assay. […] Furthermore, Jurkat T cells were used to simulate primary T cells for investigating the immune toxicity of the treated compounds with the regular concentrations within 48 h.
(§2) The MDA-MB-231 and Jurkat cell line was provided by the Chinese Academy of Sciences Cell Bank. The cytotoxicity of the test compounds was determined using the MTT assay. Briefly, MDA-MB-231 and Jurkat cells were incubated at 37 °C in a humidified 5% CO2 incubator for 24 h in 96-microwell plates. Then, 100 μL of culture medium containing the test compounds at different concentrations was added to each well and incubated at 37 °C for another 48 h. The MTT was added and incubated for another 4 h, and the optical density was detected with a microplate reader at 570 nm. The IC50 values were calculated according to the dose-dependent curves.

[4] = tested on: Jurkat T cells; test: MTT non-specific cytotoxicity assay, Jurkat; format: cell-based
Description: as §1, §2

[5] = Water solubility by HPLC; format: physicochemical; conditions: aqueous buffer, thermodynamic from solid, pH 7.4, PBS
Description: The aqueous solubility was estimated by HPLC. The HPLC analysis was performed on a Shimadzu LC-20AT machine with a BDS Hypersil C18 column, and the column temperature was at 28 °C. Mobile phase B (100% MeOH) and mobile phase A (100% water) were used in a gradient elution program (0 min: 30% (B), 2 min: 50% (B), 8 min: 95% (B), 14 min: 95% (B), 18 min: 70% (B), 20 min: 30% (B)) with a flow rate of 1.0 mL/min at […]. Methanol was used to configure an accurate compounds concentration to calculate the standard curve. The excess test compound was dissolved in PBS (KH2PO4 0.24 g + KCl 0.2 g + NaCl 8 g + Na2HPO4·12H2O 3.58 g + 1 L water) and then analyzed by HPLC.

[6] = tested on: Hep3B/OS-8/hPD-L1 and CD3+ T cells co-culture; test: IFN-γ production in Hep3B/OS-8/hPD-L1 and CD3+ T cell co-culture assay

T1 sequence (Q9NZQ7 19-238 limits assumed): as above

Question: Which results are given for `COc1nc(-c2cccc(-c3ccccc3F)c2C)ccc1CNCCC(N)=O` [Compound A9, 3-(((6-(2′-Fluoro-2-methyl-[1,1′-biphenyl]-3-yl)-2-methoxypyridin-3-yl)methyl)amino)propenamide]?
Answer: increase in activity as compared with A4 ([1]; HTRF IC50 ratio): more than 23 fold; IC50 ([1]; HTRF, two independent experiments): 0.00093 µM; LE ([1]; LE = −1.35 logIC50/Nheavy atoms (HTRF IC50)): 0.43; LE ([2]; LE = -1.35log KD/Nheavy atoms (SPR KD)): 0.40; KD compared with that of A15 ([2]; SPR KD ratio): 5 fold; kon ([2]; SPR association rate, read-out: Ka (M-1s-1) / Kon): 538000 M⁻¹ s⁻¹; koff ([2]; SPR dissociation rate, read-out: Kd (s-1) / Koff): 0.00196 s⁻¹; Kd ([2]; SPR, 25 °C, 1:1 binding model): 0.00364 µM; EC50 ([3]; Homo sapiens, MDA-MB-231, 48 h, read-out: EC50 (μM)/MDA-MB-231 Toxicity): 11.1 µM; direct killing of tumor cells ([3]; as shown in Table 3): do not directly kill tumor cells; EC50 ([4]; Homo sapiens, Jurkat, MTT, 48 h, read-out: EC50 (μM)/Jurkat Toxicity): 7.6 µM; immune toxicity in Jurkat T cells ([4]; regular concentrations within 48 h): lower cell toxicity; solubility [5]: 126 µg/mL (≈ 321 µM); IFN-γ production / release ([6]; 72 h co-culture, ELISA, dose response): promote the dose-dependent release of IFN-γ; also recorded: significantly promote the production of IFN-γ in a dose-dependent manner; also recorded: potently induces the release of IFN-γ; promoting effect on IFN-γ production compared with BMS-202 ([6]; A9 at 5 μM): significantly higher than that of BMS-202; promoting effect on IFN-γ production compared with Keytruda ([6]; A9 at 5 μM vs Keytruda at 5 μg/mL): comparable promoting effect on production of INF-γ; also recorded: comparable to that of Keytruda at 5 μg/mL
